In patent US9872853B2, “2,3-dihydro-1H-indole compounds” (Eli Lilly and Company, priority 2016, dated 2018):
Several values for one entry are separate records, joined by “and”; a condition that tells them apart may be missing. Equal entries are not always repeated. Where two headings read alike, the source gives them in different places.

Legend:
Colon26 tumors = assay: Mouse syngeneic Colon26 model for colon cancer; assay type: in vivo, BALB/c mice
Method: Grow the mouse BALB/c-derived Colon26 colon cancer cell line in RPMI 1640 medium supplemented with 10 mM HEPES, […] sodium pyruvate, and 10% fetal bovine serum. Harvest sub-confluent cells with trypsin and rinse twice with complete growth medium lacking serum. Initiate subcutaneous tumors by injecting 1×10^6 cells resuspended in HBSS in the rear flank of immune-competent BALB/c mice (Envigo, Indianapolis, Ind.). Six days after tumor implantation, randomize animals based on body weight and place into their respective treatment groups using the number of animals per group as indicated.
(§1) Capture tumor size and body weight using Study Director. Estimate tumor volume (V) by using the formula: V=0.536×L×W^2 where L=larger measured diameter and W=smaller of the perpendicular diameter. Transform the tumor volume data to a log scale to equalize variance across time and treatment groups. Analyze the log volume data with a two-way repeated measures analysis of variance by time and treatment using the MIXED procedures in SAS software (Version 9.2). The correlation model for the repeated measures is Spatial Power. Compare treated groups to the control group at each time point. Use the MIXED procedure also separately for each treatment group to calculate adjusted means and standard errors at each time point. Both analyses account for the autocorrelation within each animal and for the loss of data that occurs when animals with large tumors are removed from the study early. Calculate relative changes in tumor volume (% T/C) using the tumor volume measurements taken nearest to the last day of dosing with Example 1A, using the formula % T/C=100×ΔT/ΔC, where T=mean tumor volume of the compound treated group, ΔT=mean tumor volume of the compound treated group minus the mean tumor volume on the baseline day, C=mean tumor volume of the control (vehicle) group, and ΔC=mean tumor volume of the control group minus the mean tumor volume on the baseline day. If ΔT<0, then a tumor regression value is calculated instead of % T/C whereby % Regression=100×ΔT/Tinitial such that Tinitial=mean tumor volume on the baseline day.
(§2) Assess antitumor efficacy of Example 1A and LY3300054 alone, or in combination by measuring tumor volume by three dimensional caliper measurements twice a week during the course of the study. Measure body weight twice weekly during the course of the study, as a general indicator of tolerability.
(§3) Formulations for Example 1A and LY3300054: Formulate Example 1A on a weekly basis in 1% HEC/0.25% Tween 80/0.05% Antifoam and store at 4° C. Solublize LY3300054 in phosphate buffered saline and store at 4° C.
(§4) Control group(s): For single agent efficacy studies, administer vehicle for Example 1A alone. For combination studies, administer both vehicles used for Example 1A and LY3300054 according to the same schedule for each compound, respectively. For monotherapy groups in combination efficacy studies, treat the animals with the desired compound and the vehicle for the compound not being dosed following the schedule for the non-dosed compound.
Treat female BALB/c mice (n=10) bearing Colon26 tumors with Example 1A twice daily for 21 days by oral gavage at doses of 10, 50, and 100 mg/kg. Start administration of Example 1A six days after tumor implantation, and monitor tumor growth and body weight twice a week for the duration of the treatment period.

His6-IDO1 = molecular target: T1, His6-IDO1 (Homo sapiens, UniProt P14902); assay: Binding assay for IDO1: competition with a tritiated spy molecule; details: displacement of 50 nM tritiated spy molecule, four hours, room temperature
T1 construct: purchased Proteros PR-0278
Method: Specifically, this assay assesses the ability of test compounds to compete with a tritiated spy molecule 1-(2,4-difluorophenyl)-3-[[1-(3,4,5-tritritiobenzoyl)indolin-5-yl]methyl]urea and allows for the calculation of the binding affinity, IC50.
Competitive Binding of 1-(2,4-Difluorophenyl)-3-[[1-(3,4,5-tritritiobenzoyl)indolin-5-yl]methyl]urea to IDO1
Load 300 nM His6-IDO1 (Proteros, SwissProtID P14902, Cat# PR-0278, batch 19/59, 98 mg/mL in 25 mM MES pH 6.5, 150 mM KCl, purity >95%) diluted in DPBS to each well of nickel coated plate (Sigma, Cat#55563) and incubate overnight at 4° C. Remove unbound proteins by washing plate with 300 μL DPBS four times in BIOTEK® Microplate Washer. Add 100 μL of blocking buffer (0.05% TWEEN® 20/DPBS) per well and incubate for one hour at room temperature to reduce nonspecific binding. While blocking the plate, prepare 50 nM 1-(2,4-difluorophenyl)-3-[[1-(3,4,5-tritritiobenzoyl)indolin-5-yl]methyl]urea (Biocair, Cat# TRQ41455) by diluting in DPBS, and serially dilute unlabeled stock solution 2.5-fold in DMSO to generate an eleven point dilution curve. […] Quantitate total bound and nonspecific binding (NSB) of the 1-(2,4-difluorophenyl)-3-[[1-(3,4,5-tritritiobenzoyl)indolin-5-yl]methyl]urea ligand using a Trilux Microbeta Counter. […]

IDO1 activity in SKOV3 = molecular target: T2, IDO1 activity in SKOV3 (Homo sapiens, UniProt P14902); assay: Kynurenine production assay (SKOV3); assay type: cell-based; details: SKOV3 cells, 18 hours, MS measurement in media
T2 construct: an ovarian cancer cell line that intrinsically expresses IDO1; host or cells: SKOV3 (in vitro); SKOV3X (Indiana University Research and Technology Center) as intraperitoneal xenograft tumours in athymic nude mice
Method: The purpose of this assay is to evaluate the inhibition of the production of kynurenine, N-formyl-kynurenine and the depletion of tryptophan in IDO1 expressing cancer cells and assess whether compounds are overtly toxic to these cells. Exemplary compounds are tested for the inhibition of IDO1 activity in SKOV3 (ATCC, Cat# HTB-77), an ovarian cancer cell line that intrinsically expresses IDO1. Due to IDO1 expression, SKOV3 cells degrade tryptophan with the concomitant production of kynurenine and compounds are tested for their ability to inhibit the production of kynurenine, N-formyl-kynurenine and the depletion of tryptophan. Optionally, overt toxicity of compounds can be assessed by monitoring cell viability.
Plate SKOV3 cells, an IDO1-expressing ovarian cancer cell line, at 20,000 cells per well in 100 μL of McCoys 5A media (Gibco, Cat#16600-082) supplemented with non-essential amino acids (Gibco, Cat#11140-050), 1 mM sodium pyruvate (Gibco, Cat#11360-070), and 10% fetal bovine serum, complete media, in a 96 well tissue culture plate (BD Biosciences). Then, incubate cells for 16 hours in a 37° C. incubator with 5% CO2. […] Optionally, return original plate(s) to the incubator for an additional 24 hours and measure the viability of cells by adding an equal volume of CELLTITER-GLO® (Promega) and measure luminescence in an PERKIN ELMER® EnVision plate reader. […]

L55 tumors = assay: L55 humanized tumor model with hPBMC challenge; assay type: in vivo; details: for tolerability (body weight): with or without hPBMCs
Excerpt: Grow the human NSCLC cell line, L55, in RPMI 1640 medium supplemented with 10% fetal bovine serum. Harvest sub-confluent cells with trypsin and rinse twice with growth medium lacking serum. Initiate the growth of subcutaneous tumors by injecting 5×10^6 in a 1:1 mixture of HBSS and MATRIGEL® (BD Biosciences, Franklin Lakes, N.J.) in the rear flank of NOD.Cg-Prkdc^scidI12rg^tm1Wjl/SzJ mice more commonly known as NOD scid gamma chain knockout mice (NSG) mice (The Jackson Laboratory, Bar Harbour, Me.), which lack T cells, B cells, NK cells, and are deficient in cytokine signaling. When the mean tumor volume reaches approximately 200-300 mm^3, randomize the animals by tumor size and body weight and place into their respective treatment groups as indicated. After randomization, challenge tumor-bearing mice with PBS alone (no PBMCs) or with PBS containing 1×10^7 human PBMCs into the tail vein of recipients.
as §1, §2, §3
as §4, with “compound. […]” for “compound.”

T1 sequence (P14902 whole entry): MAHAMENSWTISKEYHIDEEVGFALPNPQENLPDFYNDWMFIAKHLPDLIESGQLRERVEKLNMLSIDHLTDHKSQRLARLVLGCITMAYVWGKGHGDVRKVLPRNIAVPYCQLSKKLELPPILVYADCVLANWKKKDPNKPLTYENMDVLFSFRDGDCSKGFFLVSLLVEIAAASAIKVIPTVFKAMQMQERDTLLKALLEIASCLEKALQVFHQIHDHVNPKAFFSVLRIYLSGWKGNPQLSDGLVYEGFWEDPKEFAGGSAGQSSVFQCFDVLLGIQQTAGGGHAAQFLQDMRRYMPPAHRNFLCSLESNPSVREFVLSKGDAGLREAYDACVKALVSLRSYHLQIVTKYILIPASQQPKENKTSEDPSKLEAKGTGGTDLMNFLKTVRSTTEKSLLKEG
T2 sequence (P14902 whole entry): as above

Compound | reduction in body weight compared to baseline (Colon26 tumors; 10 mg/kg twice daily, day 20) [%] | reduction in body weight compared to baseline (Colon26 tumors; 50 mg/kg twice daily, day 20) [%] | reduction in body weight compared to baseline (Colon26 tumors; 100 mg/kg twice daily, day 20) [%] | tolerability (body weight changes) (Colon26 tumors; 10, 50 and 100 mg/kg twice daily for 21 days, versus vehicle-treated mice) | tumor growth inhibition (statistics) (Colon26 tumors; only 50 and 100 mg/kg doses, day 20) | IC50 (His6-IDO1) | IC50 (IDO1 activity in SKOV3; read-out: IC50 for inhibiting N-formyl-kynurenine) [nM] | IC50 (IDO1 activity in SKOV3; read-out: IC50 for inhibiting kynurenine) [nM] | tumor growth inhibition (L55 tumors; 75 mg/kg twice daily oral, absence of hPBMCs, versus vehicle without PBMCs) | tolerability (body weight) (L55 tumors; 75 mg/kg twice daily oral) | effect on tumor growth (L55 tumors; 10 mg/kg intraperitoneal once a week for 4 weeks, with hPBMCs, versus vehicle) | change in tumor volume (% T/C) (L55 tumors; 10 mg/kg intraperitoneal once a week, with hPBMCs, day 37, versus vehicle lacking PBMCs) [%] | tolerability (body weight) (L55 tumors; 10 mg/kg intraperitoneal once a week)
C[C@@H](NC(=O)c1ccc(F)cc1)c1ccc2c(c1)CCN2C(=O)C1CCOCC1 (single isomer, unassigned) [Example 1A] | 2.5 | 8 | 2.5 | no significant tolerability issues | statistically (p<0.001) relevant growth inhibition | < 1500 nM and 33 nM | 7 | 7 | did not result in significant tumor growth inhibition | No significant tolerability issues |  |  | 
C[C@H](NC(=O)c1ccc(F)cc1)c1ccc2c(c1)CCN2C(=O)C1CCOCC1 (single isomer, unassigned; isomer 2) [Example 1B] |  |  |  |  |  | < 1500 nM |  |  |  |  |  |  | 
LY3300054: an antibody that binds human PD-L1 (SEQ ID NO: 1), comprising a light chain (LC) and a heavy chain (HC) |  |  |  |  |  |  |  |  |  |  | statistically significant tumor growth inhibition | 75.7 | No significant tolerability issues
